Among the test systems are 786-0 renal; HL-60(TB) leukemia; HOP-62 NSCLC; KM12 colon; NCI-H226 lung; NCI-H23 lung; SN12C renal; TK-10 renal; MCF7 breast.
Holding throughout (test): NCI tumour cell line growth inhibition, 48 h

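Test compounds were applied to cells in 96-well plates for 48 hours at 5 doses. GI50 = concentration required for 50% inhibition of growth. Definition used: TGI = concentration required for complete inhibition of growth.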

Regarding `Cn1nc(-c2ccccc2)c2c(/C=C/c3ccccc3)onc2c1=O`, the TGI in the assay with 786-0 renal, in the assay on HL-60(TB) leukemia, in the assay on HOP-62 NSCLC, in the assay with KM12 colon, with NCI-H226 lung and in the assay on NCI-H23 lung was greater than 100 µM in each case. Further, the TGI in the assay with SN12C renal and with TK-10 renal was greater than 100 µM in each case.

With `CC1=C(C(=O)Nc2cc(F)c(F)cc2F)C(c2ccc([N+](=O)[O-])cc2)C(C(=O)Nc2cc(F)c(F)cc2F)=C(C)N1`, the TGI in the assay on 786-0 renal is greater than 100 µM; in the assay with HL-60(TB) leukemia, 35.7 µM; in the assay with HOP-62 NSCLC, greater than 100 µM; with KM12 colon, greater than 100 µM; with NCI-H226 lung, greater than 100 µM; in the assay with NCI-H23 lung, greater than 100 µM. Also, the results for the TGI in the assay on SN12C renal and in the assay with TK-10 renal were greater than 100 µM and 95.1 µM, respectively.

For `CCSc1c2ccccc2c(-c2nc(F)nc(F)n2)n1CCc1ccccc1`, the TGI in the assay on 786-0 renal, in the assay with HL-60(TB) leukemia, with HOP-62 NSCLC, with KM12 colon, in the assay with NCI-H226 lung and with NCI-H23 lung was greater than 100 µM in each case. Moreover, the TGI with SN12C renal and in the assay with TK-10 renal was greater than 100 µM each time.

`COc1cccc(-c2cc(=O)c3ccccc3[nH]2)c1`: the TGI with 786-0 renal was greater than 100 µM; with HL-60(TB) leukemia, 8.57 µM; in the assay on HOP-62 NSCLC, greater than 100 µM; with KM12 colon, greater than 48.4 µM; in the assay with NCI-H226 lung it was greater than 29.6 µM; in the assay with NCI-H23 lung it was greater than 100 µM. Moreover, the TGI with SN12C renal and in the assay with TK-10 renal was greater than 100 µM in each case.

With `CC1(c2ccc(Cl)cc2)C2C(=O)NC(=O)C1C(=O)NC2=O` (configuration not stated), the TGI in the assay on 786-0 renal, in the assay with HL-60(TB) leukemia, in the assay on HOP-62 NSCLC, in the assay on KM12 colon, in the assay with NCI-H23 lung and in the assay with SN12C renal was greater than 100 µM throughout. In the assay with TK-10 renal, this compound displayed a TGI greater than 100 µM.

For the compound `CN1c2ccccc2N(C(=O)c2ccccc2)C(CC(=O)O)c2cccn21` (configuration not stated), the TGI with 786-0 renal, in the assay with HL-60(TB) leukemia, in the assay with HOP-62 NSCLC, in the assay with KM12 colon, in the assay with NCI-H23 lung and in the assay on SN12C renal was greater than 100 µM each time. Moreover, the TGI in the assay on TK-10 renal is greater than 100 µM.

For `CC(=O)O[C@H]1CC[C@@]2(C)C(=CC[C@@H]3C2CC[C@]2(C)Nc4nc5ccccc5cc4CC32)C1` (some centres not stated), the TGI was 10.7 µM in the assay on 786-0 renal; 17.7 µM with HL-60(TB) leukemia; 26.7 µM with HOP-62 NSCLC; 12.9 µM in the assay with KM12 colon; 8.25 µM in the assay with NCI-H226 lung; 26.6 µM in the assay on NCI-H23 lung. The values for the TGI with SN12C renal and in the assay on TK-10 renal were 20.1 µM and 18.1 µM, respectively.

On to `Brc1ccc2ns[s+]c2c1`, for which the TGI was greater than 100 µM in the assay on 786-0 renal; greater than 100 µM in the assay with HL-60(TB) leukemia; greater than 31.6 µM in the assay with HOP-62 NSCLC; greater than 100 µM in the assay on KM12 colon; greater than 100 µM in the assay on NCI-H226 lung; greater than 100 µM in the assay with NCI-H23 lung. Besides, the TGI in the assay on SN12C renal and with TK-10 renal was greater than 100 µM throughout.

Take `CCOc1ccc(NC(=O)CC2C(=O)Nc3ccccc3S2(=O)=O)cc1` (configuration not stated): the TGI was greater than 100 µM in the assay with 786-0 renal; greater than 100 µM in the assay on HL-60(TB) leukemia; greater than 100 µM with HOP-62 NSCLC; greater than 100 µM in the assay with KM12 colon; 90.3 µM in the assay on NCI-H226 lung; greater than 100 µM with NCI-H23 lung. Moreover, the TGI with SN12C renal and in the assay with TK-10 renal was greater than 100 µM in each case.

As to `CCN1CCN(C(=O)[C@]23CCC(C)(C)C[C@@H]2C2=CC[C@@H]4[C@@]5(C)C/C(=C/c6ccncc6)C(=O)C(C)(C)[C@@H]5CC[C@@]4(C)[C@]2(C)CC3)CC1`, the GI50 was 1.68 µM in the assay on 786-0 renal; 1.04 µM with HL-60(TB) leukemia; 1.72 µM in the assay on HOP-62 NSCLC; 1.47 µM in the assay with KM12 colon; 1.08 µM with MCF7 breast; 2 µM with NCI-H226 lung. Besides, the GI50 was 1.63 µM with NCI-H23 lung, 1.31 µM with SN12C renal and 1.95 µM in the assay on TK-10 renal. Moreover, the TGI in the assay on 786-0 renal is 3.15 µM; in the assay with HL-60(TB) leukemia it was 4.4 µM; in the assay on HOP-62 NSCLC, 3.3 µM; in the assay on KM12 colon, 2.98 µM; in the assay on MCF7 breast, 2.53 µM; in the assay on NCI-H226 lung, 4.31 µM. For the same compound, the TGI worked out at 3.16 µM in the assay on NCI-H23 lung, 2.66 µM in the assay on SN12C renal and 3.47 µM in the assay on TK-10 renal.

For `Nc1c(Cl)ncnc1NCCCNc1ncnc(Cl)c1N`, the TGI in the assay with 786-0 renal, in the assay with HL-60(TB) leukemia, in the assay on HOP-62 NSCLC, in the assay with KM12 colon, in the assay with NCI-H226 lung and in the assay on NCI-H23 lung was greater than 100 µM throughout. Besides, the TGI in the assay with SN12C renal and in the assay with TK-10 renal was greater than 100 µM each time.

Turning to `O=C(NNc1ccccc1)/C(=C/c1ccc2c(c1)OCO2)NC(=O)c1ccccc1`, the TGI with 786-0 renal, in the assay with HL-60(TB) leukemia, with HOP-62 NSCLC, with KM12 colon, in the assay with NCI-H226 lung and with NCI-H23 lung was greater than 100 µM in each case. The TGI with SN12C renal and in the assay on TK-10 renal was greater than 100 µM throughout.

`NC(=O)NC1C(C(N)=O)N(Cc2ccccc2)C(=O)N1Cc1ccccc1` (configuration not stated): the TGI in the assay on 786-0 renal, with HL-60(TB) leukemia, in the assay with HOP-62 NSCLC, in the assay on KM12 colon, with NCI-H23 lung and in the assay on TK-10 renal was greater than 100 µM each time.

For the compound `COc1ccc(/C=C/C(=O)c2sc(-n3nc(-c4ccccc4)cc3-c3ccccc3)nc2C)cc1`, the GI50 in the assay on 786-0 renal, in the assay on HOP-62 NSCLC, with NCI-H226 lung, in the assay on NCI-H23 lung and in the assay with TK-10 renal was greater than 100 µM each time. Besides, the TGI in the assay on 786-0 renal, in the assay on HOP-62 NSCLC, in the assay with KM12 colon, in the assay on NCI-H226 lung, in the assay on NCI-H23 lung and in the assay with SN12C renal was greater than 100 µM throughout. Besides, the TGI with TK-10 renal is greater than 100 µM.

Source of the values: PubChem BioAssay (NCI).
